# Test results published in PubChem BioAssay (NCI).
#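 1) Cells in 96-well plates. 2) Compound, 48 h, 5 concentrations. 3) Linear interpolation between surrounding doses. 4) Unreached endpoint = highest concentration. TGI denotes the concentration required for complete inhibition of growth.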 Where a SMILES comes first, the peptide text is derived from it. The star is where a group is joined. Boc = CC(C)(C)OC(=O)*; OSu = O=C1CCC(=O)N1O*
# What was measured:
# Assay in all cases: NCI-60 cell line screen, 48 h
# [1] = test system: EKVX NSCLC
# [2] = test system: UACC-62 melanoma
# [3] = test system: HCT-15 colon
# [4] = test system: KM12 colon
# [5] = test system: A549 NSCLC
# [6] = test system: SNB-75 CNS
# [7] = test system: NCI-H522 lung
# [8] = test system: U251 CNS
# [9] = test system: MCF7 breast
# [10] = test system: ACHN renal
# [11] = test system: CCRF-CEM leukemia
# [12] = test system: NCI/ADR-RES ovarian
# [13] = test system: PC-3 prostate
# [14] = test system: T-47D breast
# [15] = test system: MDA-N
# [16] = test system: M14 melanoma
# [17] = test system: NCI-H460 lung
# [18] = test system: SR leukemia
SMILES,TGI [1],TGI [2],TGI [3],TGI [4],TGI [5],TGI [6],TGI [7],TGI [8],TGI [9],TGI [10],TGI [11],TGI [12],TGI [13],TGI [14],TGI [15],TGI [16],TGI [17],TGI [18]
[N-]=[N+]=C1N=CN=C1c1ncn[nH]1,> 100 µM,56.3 µM,> 100 µM,> 100 µM,> 100 µM,> 100 µM,> 100 µM,> 100 µM,> 100 µM,> 100 µM,27.6 µM,> 100 µM,> 100 µM,83 µM,> 100 µM,> 100 µM,,
CCCCCCCCOC1C(O)C(O)C(O)C(O)C12CO2 (centres undefined),,> 100 µM,> 100 µM,> 100 µM,> 100 µM,> 100 µM,> 100 µM,> 100 µM,> 100 µM,> 100 µM,> 100 µM,> 100 µM,> 100 µM,> 100 µM,> 100 µM,,> 100 µM,> 100 µM
CC(NC(=O)C(NC(=O)OC(C)(C)C)C(C)C)C(=O)NCC(=O)ON1C(=O)CCC1=O (stereo not drawn) (Boc-Val-Ala-Gly-OSu; configuration not given here),> 100 µM,> 100 µM,> 100 µM,> 100 µM,> 100 µM,> 100 µM,> 100 µM,> 100 µM,> 100 µM,> 100 µM,,> 100 µM,> 100 µM,> 100 µM,> 100 µM,> 100 µM,> 100 µM,> 100 µM
CC(=O)[C@@]1(C)CC2(CCN(C)CC2)OC1C (some centres undefined),> 100 µM,,> 100 µM,> 100 µM,> 100 µM,> 100 µM,> 100 µM,> 100 µM,,> 100 µM,,> 100 µM,,> 100 µM,> 100 µM,> 100 µM,> 100 µM,
COC(=O)C(Cc1c[nH]c2ccccc12)NC(=O)C(Cc1c[nH]c2ccccc12)NC(=O)C(Cc1c[nH]c2ccccc12)NC(=O)C(Cc1c[nH]c2ccccc12)NC(=O)C(Cc1c[nH]c2ccccc12)NC(=O)C(Cc1c[nH]c2ccccc12)NC(=O)OC(C)(C)C (centres undefined) (Boc-WWWWWW-OMe; configuration not given here),,> 100 µM,> 100 µM,,> 100 µM,> 100 µM,> 100 µM,> 100 µM,> 100 µM,> 100 µM,> 100 µM,,> 100 µM,> 100 µM,> 100 µM,,> 100 µM,> 100 µM
COc1cc(C2c3cc4c(cc3[C@@H](Nc3ccccc3)C3COC[C@H]23)OCO4)cc(OC)c1O (some centres undefined),> 100 µM,,12.9 µM,32.5 µM,14 µM,11.9 µM,25.8 µM,16.1 µM,> 100 µM,3.82 µM,2.15 µM,> 100 µM,> 100 µM,> 100 µM,> 100 µM,> 100 µM,5 µM,16.5 µM
O=CN1CCN(C(=O)c2ccc(Cl)cc2Cl)C1=S,> 100 µM,> 100 µM,> 100 µM,> 100 µM,> 100 µM,85.5 µM,46.8 µM,> 100 µM,> 100 µM,> 100 µM,> 100 µM,> 100 µM,> 100 µM,> 100 µM,> 100 µM,> 100 µM,> 100 µM,
CC(O)c1cc2c(s1)C(=O)c1sccc1C2=O (centres undefined),0.674 µM,0.126 µM,0.178 µM,0.593 µM,0.767 µM,0.218 µM,0.602 µM,,1.89 µM,,> 100 µM,0.59 µM,1.43 µM,0.879 µM,0.0367 µM,0.0494 µM,0.268 µM,> 100 µM
CCC12CCCN(Cc3ccccc3)C1c1c([nH]c3ccccc13)C(C(=O)OC)C2 (centres undefined),,> 10 µM,> 10 µM,> 10 µM,> 10 µM,> 10 µM,> 10 µM,> 10 µM,> 10 µM,> 10 µM,> 10 µM,> 10 µM,> 10 µM,> 10 µM,> 10 µM,> 10 µM,,> 10 µM
NC(N)=N/N=C/c1nc2n(c1[N+](=O)[O-])CCS2,76.5 µM,> 100 µM,> 100 µM,> 100 µM,> 100 µM,60.2 µM,> 100 µM,89.3 µM,> 100 µM,> 100 µM,,> 100 µM,> 100 µM,67.4 µM,> 100 µM,> 100 µM,48.4 µM,88.2 µM
COC(=O)C1=C(C(=O)OC)C(C(=O)c2ccc(Br)cc2)N2N=C(c3ccc(Cl)cc3)C=CC12 (centres undefined),> 100 µM,> 100 µM,> 100 µM,> 100 µM,> 100 µM,> 100 µM,> 100 µM,> 100 µM,> 100 µM,> 100 µM,> 100 µM,> 100 µM,> 100 µM,,> 100 µM,> 100 µM,> 100 µM,> 100 µM
Cc1c(Cl)nc(Nc2nc3ccccc3[nH]2)nc1Cl,84.5 µM,> 100 µM,> 100 µM,41.6 µM,> 100 µM,> 100 µM,> 100 µM,> 100 µM,,> 100 µM,,> 100 µM,> 100 µM,> 100 µM,> 100 µM,> 100 µM,> 100 µM,> 100 µM
O=[N+]([O-])C1CC/C(=N/O)c2nonc21 (centres undefined),> 10 µM,> 10 µM,> 10 µM,> 10 µM,> 10 µM,,,> 10 µM,> 10 µM,> 10 µM,> 10 µM,> 10 µM,> 10 µM,> 10 µM,> 10 µM,> 10 µM,> 10 µM,> 10 µM
CCCN1C(=O)CC(C)N(Cc2ccccc2Cl)C1=S (centres undefined),93.7 µM,46.3 µM,> 100 µM,92.5 µM,> 100 µM,,56.6 µM,67.8 µM,78.4 µM,88.4 µM,> 100 µM,53.1 µM,55.7 µM,44.1 µM,60.6 µM,79.9 µM,> 100 µM,
